Test results from patent US20180271930A1, “METHOD FOR RAISING POULTRY” (priority 2015, published 2018).

How the values were obtained:
[1] = Examination 2-1: breeding performance at 21 and 28 days old after GSSG prestarter feed; type: in vivo, broiler chicks; details: 0.01% by mass GSSG feed for first 72 h, n = 6
Procedure: Newly hatched broiler chicks (Ross Breeders Ltd.) were fed with a feed composition for 3 days. The feed composition contained GSSG at a level of 0.01% by mass which was thought to be appropriate based on Examination 1. […] Two groups, which were a control group and a GSSG addition group (0.01% by mass), were set. In each group, 6 males and 6 females were tested. Chicks received at 0 day old were fed with a test feed composition (initial-phase feed composition) during 72 hours after the receipt. […] Their body weights, breast meat weights, leg meat weights, and liver weights were measured. As the initial-phase feed composition, the feed composition comprising 0.01% by mass of GSSG used in Examination 1 was used for the GSSG addition group, and the feed composition (ME3,100 kcal/kg, CP21) free of GSSG used in Examination 1 was used for the control group. […] An ammonium salt was used as oxidized glutathione (GSSG). The GSSG contained 95.6% by mass of oxidized glutathione, and the content of reduced glutathione mixed therein was 0.1% by mass or less.

myostatin = assay: Examination 1: myostatin gene expression in superficial pectoral muscle (real-time PCR, relative to RPS9); type: in vivo, broiler chicks of the Chunky breed (Ross 308); details: 3 days old, GSSG addition group (0.01% or 0.1% feed), FIG. 1C, n=6
Text: FIGS. 1A to 1D illustrate graphs showing the expression of genes related to skeletal muscle cell differentiation in superficial pectoral muscles upon administration of each feed composition in Examination 1 (n=6). […] A relative value of the expression level of each factor is expressed as an average±standard deviation of values obtained by dividing the expression levels of each factor by the expression level of RPS9. Each different symbol denotes a significant difference in the […] multiple comparison test (P<0.05). Newly hatched broiler chicks of the Chunky breed (Ross 308, Ross Breeders Ltd.) were tested. […] Real-time PCR was performed by adding cDNA, a primer set, and other necessary reagents to wells of a 96-well PCR plate, preheating the plate using a thermal cycler at 95° C. for 3 minutes, followed by 35 cycles of steps of denaturation, annealing, and elongation in a repetitive manner, and measurement of […] after the elongation step for each cycle. The expression level of each gene was designated as a relative value obtained by dividing the determined amount of an amplification product of IGF-I, myostatin, MyoD, or myogenin by the amount of an amplification product of RPS9. […] The amount of GSSG used herein was determined in terms of the amount of free oxidized glutathione. […]

myogenin = assay: Examination 4: myogenin gene expression in superficial pectoral muscle at 3 days old; type: in vivo, broiler chicks; details: 0.01% by mass additive in feed for 3 days, FIG. 3A, n=4
Procedure: FIGS. 3A to 3C illustrate graphs showing the expression of genes related to skeletal muscle cell differentiation in superficial pectoral muscles upon administration of each feed composition in Examination 4 (n=4). […] A relative value of the expression level of each factor is expressed as an average±standard deviation of values obtained by dividing the expression levels of each factor by the expression level of RPS9. Newly hatched broiler chicks (Ross Breeders Ltd.) were tested. A control group (=additive-free group), a GSSG addition group (0.01% by mass), and a GSH addition group (0.01% by mass) each consisting of 5 males and 5 females were set and fed with a feed composition for 3 days. […] At this timing, 2 males and 2 females in each group were slaughtered to collect blood and skeletal muscles. The gene expression levels of the MyoD family (myogenin, myostatin, and Pax7) were observed. […] Statistics were analyzed using a mixed model in consideration of a gender difference and an interaction between males and females. A method for determining gene expressions of the above factors in skeletal muscles is described above. An ammonium salt was used as oxidized glutathione (GSSG). The GSSG contained 95.6% by mass of oxidized glutathione, and the content of reduced glutathione mixed therein was 0.1% by mass or less. […]

[2] = Examination 1: body weight of initial-phase chicks fed additive-containing feed for 3 days; type: in vivo, broiler chicks of the Chunky breed (Ross 308); details: n = 6
Procedure: Newly hatched broiler chicks of the Chunky breed (Ross 308, Ross Breeders Ltd.) were tested. […] Blood and skeletal muscles were collected to observe gene expression levels of MyoD, myogenin, myostatin, and IGF-I (insulin-like growth factor-I). An ammonium salt was used as oxidized glutathione (GSSG). The GSSG contained 95.6% by mass of oxidized glutathione, and the content of reduced glutathione mixed therein was 0.1% by mass or less. […] The amount of GSSG used herein was determined in terms of the amount of free oxidized glutathione. In all the following Examinations, the amounts of GSSG are expressed in terms of the amount of free oxidized glutathione.

oxidized glutathione [GSSG]
Breast meat ([1]; 21 days old): 118 ± 4 g | Leg meat ([1]; 21 days old): 136 ± 6 g | Weight ([1]; 21 days old): 933 ± 65 g | Breast meat ([1]; 28 days old): 186 ± 15 g | Leg meat ([1]; 28 days old): 206 ± 12 g | Weight ([1]; 28 days old): 1500 ± 149 g | myostatin expression level vs control group (myostatin): significant decreases | myogenin expression level vs control group (myogenin): significantly decreased | Weight at 3 days old ([2]; feed with 0.01% by mass GSSG for 3 days): 78.1 ± 4.0 g | Weight at 3 days old ([2]; feed with 0.1% by mass GSSG for 3 days): 72.8 ± 5.6 g
